{"source": "patent US20240207263A1", "about": "“SELECTIVE MODULATORS OF ATAXIA TELA[…] (ATM) KINASE AND USES THEREOF” (priority 2021, published 2024)", "data": [{"target": "ATM (Homo sapiens (Human), UniProt Q13315)", "sequence (Q13315 whole entry, looked up)": "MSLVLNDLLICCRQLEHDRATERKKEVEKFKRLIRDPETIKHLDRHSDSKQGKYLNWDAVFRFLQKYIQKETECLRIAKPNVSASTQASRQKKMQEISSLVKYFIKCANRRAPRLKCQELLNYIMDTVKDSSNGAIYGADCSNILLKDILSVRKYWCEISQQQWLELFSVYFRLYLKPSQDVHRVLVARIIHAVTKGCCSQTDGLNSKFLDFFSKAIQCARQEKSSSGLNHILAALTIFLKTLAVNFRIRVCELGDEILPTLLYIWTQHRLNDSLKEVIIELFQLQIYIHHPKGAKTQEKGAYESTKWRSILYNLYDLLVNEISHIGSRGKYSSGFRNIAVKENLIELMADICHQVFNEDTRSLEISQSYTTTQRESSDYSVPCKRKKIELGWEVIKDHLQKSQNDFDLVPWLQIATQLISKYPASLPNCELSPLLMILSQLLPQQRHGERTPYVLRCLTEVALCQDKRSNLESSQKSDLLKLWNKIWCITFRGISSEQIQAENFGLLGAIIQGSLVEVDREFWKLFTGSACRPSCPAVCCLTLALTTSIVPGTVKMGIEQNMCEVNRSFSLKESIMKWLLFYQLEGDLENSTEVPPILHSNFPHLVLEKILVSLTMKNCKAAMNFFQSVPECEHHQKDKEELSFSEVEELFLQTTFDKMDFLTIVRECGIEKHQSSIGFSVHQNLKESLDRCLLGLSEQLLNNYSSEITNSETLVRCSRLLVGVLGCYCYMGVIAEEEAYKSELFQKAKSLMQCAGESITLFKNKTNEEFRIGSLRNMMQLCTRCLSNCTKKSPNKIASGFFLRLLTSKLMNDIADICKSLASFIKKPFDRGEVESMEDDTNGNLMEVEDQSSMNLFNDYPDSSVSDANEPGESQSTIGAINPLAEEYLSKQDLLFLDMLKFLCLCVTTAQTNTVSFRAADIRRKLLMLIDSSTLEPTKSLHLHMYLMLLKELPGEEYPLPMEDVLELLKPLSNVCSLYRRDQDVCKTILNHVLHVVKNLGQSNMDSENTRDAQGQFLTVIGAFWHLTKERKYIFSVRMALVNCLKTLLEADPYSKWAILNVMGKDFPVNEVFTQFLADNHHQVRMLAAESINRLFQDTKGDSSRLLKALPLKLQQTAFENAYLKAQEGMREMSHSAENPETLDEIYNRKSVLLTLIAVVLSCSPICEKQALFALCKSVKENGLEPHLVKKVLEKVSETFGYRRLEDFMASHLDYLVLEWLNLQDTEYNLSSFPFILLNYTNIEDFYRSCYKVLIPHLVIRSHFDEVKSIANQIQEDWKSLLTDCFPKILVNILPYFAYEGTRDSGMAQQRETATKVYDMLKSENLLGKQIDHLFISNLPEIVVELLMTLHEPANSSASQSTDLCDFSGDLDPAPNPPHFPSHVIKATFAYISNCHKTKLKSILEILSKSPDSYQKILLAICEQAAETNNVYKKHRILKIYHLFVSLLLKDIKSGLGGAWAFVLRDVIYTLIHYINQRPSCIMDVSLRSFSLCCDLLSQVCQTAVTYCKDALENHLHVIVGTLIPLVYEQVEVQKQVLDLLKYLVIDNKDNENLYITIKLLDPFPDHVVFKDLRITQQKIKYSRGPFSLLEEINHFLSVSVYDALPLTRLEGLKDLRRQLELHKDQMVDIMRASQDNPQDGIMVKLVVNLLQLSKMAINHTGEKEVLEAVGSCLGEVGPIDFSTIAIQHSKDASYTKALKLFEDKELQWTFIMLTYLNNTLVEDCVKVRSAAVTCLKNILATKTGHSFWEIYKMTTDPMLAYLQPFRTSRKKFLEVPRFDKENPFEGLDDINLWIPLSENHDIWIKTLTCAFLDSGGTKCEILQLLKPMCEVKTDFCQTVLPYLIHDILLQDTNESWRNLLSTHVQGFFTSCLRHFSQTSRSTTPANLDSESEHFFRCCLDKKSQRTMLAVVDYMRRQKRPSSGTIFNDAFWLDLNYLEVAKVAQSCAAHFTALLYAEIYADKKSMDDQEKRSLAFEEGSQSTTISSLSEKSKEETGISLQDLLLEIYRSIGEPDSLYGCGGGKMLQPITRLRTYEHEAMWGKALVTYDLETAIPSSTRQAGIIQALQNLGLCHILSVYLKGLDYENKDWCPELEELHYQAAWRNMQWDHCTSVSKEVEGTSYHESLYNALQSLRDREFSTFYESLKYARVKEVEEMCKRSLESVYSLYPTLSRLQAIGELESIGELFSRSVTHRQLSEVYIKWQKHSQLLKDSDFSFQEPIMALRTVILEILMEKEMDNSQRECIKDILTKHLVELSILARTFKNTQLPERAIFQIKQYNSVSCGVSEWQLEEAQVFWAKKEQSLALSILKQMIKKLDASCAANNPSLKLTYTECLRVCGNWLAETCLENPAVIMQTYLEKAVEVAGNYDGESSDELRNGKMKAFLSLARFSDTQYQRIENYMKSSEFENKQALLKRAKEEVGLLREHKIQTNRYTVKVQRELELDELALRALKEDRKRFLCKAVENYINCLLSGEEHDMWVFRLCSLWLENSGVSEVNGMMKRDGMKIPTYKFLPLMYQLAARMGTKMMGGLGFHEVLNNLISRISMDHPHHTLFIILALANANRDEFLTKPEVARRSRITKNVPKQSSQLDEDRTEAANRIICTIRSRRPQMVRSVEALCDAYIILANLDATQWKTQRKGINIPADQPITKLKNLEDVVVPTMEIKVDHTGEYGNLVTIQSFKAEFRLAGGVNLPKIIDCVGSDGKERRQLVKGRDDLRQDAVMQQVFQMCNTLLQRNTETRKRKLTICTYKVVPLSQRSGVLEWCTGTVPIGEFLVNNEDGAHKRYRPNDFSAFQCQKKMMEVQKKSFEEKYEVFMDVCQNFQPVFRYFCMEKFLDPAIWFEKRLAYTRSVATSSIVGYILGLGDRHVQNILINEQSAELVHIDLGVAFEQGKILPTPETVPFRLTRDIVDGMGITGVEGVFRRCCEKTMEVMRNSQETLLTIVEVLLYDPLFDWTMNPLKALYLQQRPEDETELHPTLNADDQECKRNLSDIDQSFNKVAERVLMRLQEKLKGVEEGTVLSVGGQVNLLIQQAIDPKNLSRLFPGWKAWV", "assay": "biochemical", "type": "biochemical", "conditions": "read-out: ATM IC50", "from_the_text": "Assay a): ATM Biochemical Potency\nData was collected by Caliper.", "units": {"IC50": "nM"}, "values": [{"smiles": "CO[C@H]1C[C@H](n2c(=O)n(C)c3nnc4ccc(-c5ccc(COCCN6CC7CC7C6)nc5)cc4c32)C1", "note": "(stereo partly drawn) [Example 169, 8-(6-((2-(3-azabicyclo[3.1.0]hexan-3-yl)ethoxy)methyl)pyridin-3-yl)-1-(trans-3-methoxycyclobutyl)-3-methyl-1H-imidazo[4,5-c]cinnolin-2(3H)-one]", "IC50": 42}, {"smiles": "CO[C@H]1C[C@@H](n2c(=O)n(C)c3nnc4ccc(-c5ccc([C@@H](C)OCCN6CCC7(CC6)CC7)nc5)cc4c32)C1", "note": "[Example 170, 8-(6-((R)-1-(2-(6-azaspiro[2.5]octan-6-yl)ethoxy)ethyl)pyridin-3-yl)-1-(cis-3-methoxycyclobutyl)-3-methyl-1H-imidazo[4,5-c]cinnolin-2(3H)-one]", "IC50": 1.6}, {"smiles": "CO[C@H]1C[C@@H](n2c(=O)n(C)c3nnc4ccc(-c5ccc([C@@H](C)OCCN6CCC7(CC7)C6)nc5)cc4c32)C1", "note": "[Example 171, 8-(6-((R)-1-(2-(5-azaspiro[2.4]heptan-5-yl)ethoxy)ethyl)pyridin-3-yl)-1-(cis-3-methoxycyclobutyl)-3-methyl-1H-imidazo[4,5-c]cinnolin-2(3H)-one]", "IC50": 2.5}, {"smiles": "CO[C@H]1C[C@@H](n2c(=O)n(C)c3nnc4ccc(-c5ccc(COCCN6CCCC6)nc5)cc4c32)C1", "note": "[Example 172, 1-(cis-3-methoxycyclobutyl)-3-methyl-8-(6-((2-(pyrrolidin-1-yl)ethoxy)methyl)pyridin-3-yl)-1H-imidazo[4,5-c]cinnolin-2(3H)-one]", "IC50": 21}, {"smiles": "CO[C@H]1C[C@@H](n2c(=O)n(C)c3nnc4ccc(-c5ccc(COCCN6CCCCC6)nc5)cc4c32)C1", "note": "[Example 173, 1-(cis-3-methoxycyclobutyl)-3-methyl-8-(6-((2-(piperidin-1-yl)ethoxy)methyl)pyridin-3-yl)-1H-imidazo[4,5-c]cinnolin-2(3H)-one]", "IC50": 32}, {"smiles": "CO[C@H]1C[C@@H](n2c(=O)n(C)c3nnc4ccc(-c5ccc(COCCN(C)C)nc5)cc4c32)C1", "note": "[Example 176, 8-(6-((2-(dimethylamino)ethoxy)methyl)pyridin-3-yl)-1-(cis-3-methoxycyclobutyl)-3-methyl-1H-imidazo[4,5-c]cinnolin-2(3H)-one]", "IC50": 65}, {"smiles": "Cn1c(=O)n(C2COC2)c2c3cc(-c4ccc(COCCN5CCC(F)CC5)nc4)ccc3nnc21", "note": "[Example 179, 8-(6-((2-(4-fluoropiperidin-1-yl)ethoxy)methyl)pyridin-3-yl)-3-methyl-1-(oxetan-3-yl)-1H-imidazo[4,5-c]cinnolin-2(3H)-one]", "IC50": 729}, {"smiles": "Cn1c(=O)n([C@H]2CCCOC2)c2c3cc(-c4ccc(COCCN5CCC(F)CC5)nc4)ccc3nnc21", "note": "[Example 182, (S)-8-(6-((2-(4-fluoropiperidin-1-yl)ethoxy)methyl)pyridin-3-yl)-3-methyl-1-(tetrahydro-2H-pyran-3-yl)-1H-imidazo[4,5-c]cinnolin-2(3H)-one]", "IC50": 21}, {"smiles": "Cn1c(=O)n([C@H]2CCCOC2)c2c3cc(-c4ccc(COCCN5CC6CC6C5)nc4)ccc3nnc21", "note": "(stereo partly drawn) [Example 183, 8-(6-((2-(3-azabicyclo[3.1.0]hexan-3-yl)ethoxy)methyl)pyridin-3-yl)-3-methyl-1-((S)-tetrahydro-2H-pyran-3-yl)-1H-imidazo[4,5-c]cinnolin-2(3H)-one]", "IC50": 20}, {"smiles": "CC(C)n1c(=O)n(C)c2nnc3ccc(-c4ccc([C@@H](C)OCC(=O)O)nc4)cc3c21", "note": "[Example 216, (R)-2-(1-(5-(1-isopropyl-3-methyl-2-oxo-2,3-dihydro-1H-imidazo[4,5-c]cinnolin-8-yl)pyridin-2-yl)ethoxy)acetic acid]", "IC50": 339}, {"smiles": "CC(C)n1c(=O)n(C)c2nnc3ccc(-c4ccc(C(C)(C)OCCN5CC6CC6C5)nc4)cc3c21", "note": "(centres unmarked) [Example 217, 8-(6-(2-(2-(3-azabicyclo[3.1.0]hexan-3-yl)ethoxy)propan-2-yl)pyridin-3-yl)-1-isopropyl-3-methyl-1H-imidazo[4,5-c]cinnolin-2(3H)-one]", "IC50": 72}]}]}
